Data: US20070099863A1, “Compounds for the treatment of demyelinating and autoimmune diseases” (priority 2003, published 2007)
Structures can show the parent of a compound that is named as a salt.

Key:
[1] = molecular target: T1, P2X1 (Homo sapiens, UniProt P51575); conditions: P2X1 subtype; read-out: IC50 in relation to P2X1; cited from earlier work
T1 sequence (P51575 1-399): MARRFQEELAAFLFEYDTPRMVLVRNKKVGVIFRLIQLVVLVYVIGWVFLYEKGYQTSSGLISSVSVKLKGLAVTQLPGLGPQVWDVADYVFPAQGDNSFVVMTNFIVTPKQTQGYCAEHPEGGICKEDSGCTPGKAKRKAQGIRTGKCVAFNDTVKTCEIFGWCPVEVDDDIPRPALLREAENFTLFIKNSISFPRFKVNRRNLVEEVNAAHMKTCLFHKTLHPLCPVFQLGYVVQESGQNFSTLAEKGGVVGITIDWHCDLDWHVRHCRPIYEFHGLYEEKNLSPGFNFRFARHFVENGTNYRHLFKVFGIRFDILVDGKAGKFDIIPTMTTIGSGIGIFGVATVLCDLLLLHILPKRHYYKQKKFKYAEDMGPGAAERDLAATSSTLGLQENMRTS

[2] = molecular target: T2, P2X3 (Homo sapiens, UniProt P56373); conditions: P2X3 subtype; read-out: IC50 in relation to P2X3; cited from earlier work
T2 sequence (P56373 1-397): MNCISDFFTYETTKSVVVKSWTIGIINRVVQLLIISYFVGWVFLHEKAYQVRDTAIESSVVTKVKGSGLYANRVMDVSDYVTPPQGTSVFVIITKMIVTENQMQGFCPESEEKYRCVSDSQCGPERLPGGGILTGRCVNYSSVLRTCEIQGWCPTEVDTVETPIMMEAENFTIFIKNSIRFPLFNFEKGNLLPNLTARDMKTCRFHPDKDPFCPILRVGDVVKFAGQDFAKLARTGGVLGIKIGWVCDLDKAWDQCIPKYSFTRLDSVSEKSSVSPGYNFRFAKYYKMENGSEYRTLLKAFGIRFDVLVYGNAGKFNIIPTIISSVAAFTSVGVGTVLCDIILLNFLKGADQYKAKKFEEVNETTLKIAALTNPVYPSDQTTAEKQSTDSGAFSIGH

[3] = test system: P2X receptors in oligodendrocytes; experiment: Whole-cell patch-clamp recordings in cultured oligodendrocytes; type: cell-based, rat; conditions: for induction of input current by agonist: agonist 100 μM; for EC50: cultured oligodendrocytes, whole-cell patch-clamp, read-out: EC50 of amplitude of currents generated by agonist
Method: (§1) The cell cultures were carried out from the optic nerve of the perinatal rat (P12) following established protocols, which were adapted and introduced into the laboratory according to a recent description (Matute et al, 1997, Proc. Natl. Acad. Sci. USA 94, 8830-8835).
The electrophysiological recordings were carried out in 2 to 5 day cultures, and according to the guidelines indicated in previous works (Patneau et al 1994, Neuron 12: 357-371). The cells were recorded in a chamber which allowed the composition of the extracellular medium to vary by means of a constant flow (0.5-1 mL/min). The recording electrodes were glass capillaries which contained specific solutions compatible with the cytoplasm ion concentrations. The study of the responses mediated by the purinergic receptors was carried out using the “whole-cell patch-clamp” technique, measuring the currents generated by the external application of selective agonists and antagonists of the aforementioned receptors.

[4] = test system: P2X receptors in oligodendrocytes; experiment: Cytosolic calcium levels (Fura-2) in oligodendrocyte cultures; type: cell-based, rat; conditions: for promotion of the increase of [Ca2+]i generated by ATP: propofol 60 μM
Method: as §1
The concentration of cytosol calcium was determined by the method of Grynkiewikcz et al (1985; J. Biol. Chem. 260, 3440-3450). The oligodendrocytes were loaded with […] of Fura-2/AM, and they were then washed and studied in a Zeiss inverted microscope equipped with a monochromator, 40× immersion objective, an Orca high resolution digital camera, and AquaCosmos software (Hamamatsu Photonics). The changes in cytosol calcium levels in response to agonists and antagonists, in the presence and absence of extracellular calcium, were studied. The calibration was performed at the end of the studies by means of the successive application of ionomycin and EGTA, and the calcium concentration was estimated using the measurement of the 340/380 nm ratio.

[5] = test system: oligodendrocytes; experiment: Oligodendroglial death in culture; type: cell-based, rat; conditions: for toxicity of purinergic agonists for oligodendrocytes: culture
Method: Death is calcium dependent, since its elimination from the culture media leads to it not being caused. […] The cell cultures were carried out from the optic nerve of the perinatal rat (P12) following established protocols, which were adapted and introduced into the laboratory according to a recent description (Matute et al, 1997, Proc. Natl. Acad. Sci. USA 94, 8830-8835).

[6] = test system: optic nerve; experiment: Infusion of agonists over the optic nerve in vivo (osmotic pumps); set-up: species or system rabbit; conditions: infused 3 days by osmotic pumps, examined 7 days after start
Method: The experiments on the optic nerve were carried out in rabbits (New Zealand White) which, due to their size, enable better manipulation in experimental surgery. The procedure used was that described previously (Matute, 1998, Proc. Natl. Acad. Sci. 95, 10229-10234). The purinergic agonists were applied using osmotic micropumps which released small quantities of solute for a determined time. Later, the effect of this application on the nerve was evaluated by means of a panel of oligodendrocyte markers and their progenitors, myelin, axonal integrity, astrogliosis y microgliosis.
Next, the ATP-γ-S and BzATP agonists were infused over the optic nerve using osmotic pumps which released very small quantities of solute for 3 days. […] Also, this zone had intense gliosis, lack of myelin and axonal damage (FIG. 6).

[7] = molecular target: T3, P2X4 (Homo sapiens, UniProt Q99571); conditions: P2X4 subtype; read-out: IC50 in relation to P2X4; cited from earlier work
T3 sequence (Q99571 1-388): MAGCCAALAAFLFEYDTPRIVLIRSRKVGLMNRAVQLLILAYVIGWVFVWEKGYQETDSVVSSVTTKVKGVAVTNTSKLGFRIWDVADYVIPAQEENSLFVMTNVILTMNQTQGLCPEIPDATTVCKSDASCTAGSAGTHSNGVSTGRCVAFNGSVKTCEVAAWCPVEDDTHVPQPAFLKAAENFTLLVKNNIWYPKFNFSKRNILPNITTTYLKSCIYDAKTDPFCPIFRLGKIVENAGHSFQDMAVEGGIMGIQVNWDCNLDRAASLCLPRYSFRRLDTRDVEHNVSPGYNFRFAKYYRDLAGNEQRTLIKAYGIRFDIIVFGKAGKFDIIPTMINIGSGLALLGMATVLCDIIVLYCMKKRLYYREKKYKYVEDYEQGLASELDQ

[8] = test system: oligodendrocytes of isolated optic nerve; experiment: Isolated optic nerve perfusion, oligodendrocyte damage in situ; set-up: species or system rat
Method: Next, they were incubated with purinergic agonists and antagonists for different times. Later, the nerves were perfused for 1 to 24 hours with normal aCSF saturated with oxygen. After this time passed the damage was evaluated histologically as we have described in vivo (Matute, 1998, Proc. Natl. Acad. Sci. USA 95: 10229-10234), and the biochemical changes which are underlying to this damage were analysed.
To determine if ATP is toxic to the oligodendrocytes in a preparation of nerve tissue without dissociating, entire optic nerves isolated from adult rats were perfused with artificial cerebrospinal fluid with ATP (100 μM) for 3 h. […] The damaged cells are located in the longitudinal axis of the nerve and make up part of interfascicular oligodendrocyte rows.

[9] = test system: EAE in Lewis rats; experiment: Acute EAE induced with basic myelin protein; type: in vivo, rat; conditions: 7 to 14 days post-injection
[10] = test system: EAE in DA rats; experiment: Chronic-recurrent-remittent EAE model; type: in vivo, rat; conditions: o-ATP 2.5 mg/kg every 12 h, from maximum intensity of symptoms
Method: Later, the efficacy of o-ATP in improving the symptoms of EAE was evaluated in a chronic-recurrent-remittent model. For this, DA rats were immunised with syngeneic spinal cord, the appearance of severe neurological deficits being observed 7-9 days post-injection, and which reached their first peak around 11 days.

[11] = test system: P2X7 receptors; experiment: P2X7 receptor levels in lumbar-sacral spinal cord of EAE animals (Western blot); type: in vivo, rat; conditions: EAE animals treated with o-ATP; untreated EAE reduced by half

O=c1[nH]cnc2c1ncn2C1OC(COP(=O)(O)OP(=O)(O)OP(=O)(O)OP(=O)(O)OP(=O)(O)OCC2OC(n3cnc4c(=O)[nH]cnc43)C(O)C2O)C(O)C1O (centres unmarked) [Ip5I, pentapotassium salt of P^1,P^5-Diinosine-5-pentaphosphate]
IC50 [1]: 0.003 µM | IC50 [2]: 3 µM

2′,3′-O-(4-benzoyl-4-benzoyl) [BzATP]
induction of input current by agonist [3]: induced similar responses | EC50 [3]: 520 µM | entrance of Ca2+ into oligodendrocytes ([4]; Bz-ATP 0.01-1 mM): activates the entrance of Ca^2+ into oligodendrocytes in a dose dependent way | toxicity of purinergic agonists for oligodendrocytes [5]: toxicity similar to ATP | histological examination of optic nerve after agonist infusion [6]: tissue damage

Nc1ncnc2c1ncn2[C@@H]1O[C@H](COP(=O)(O)CP(=O)(O)OP(=O)(O)O)[C@@H](O)[C@H]1O [α,β-Me-ATP, α,β-methylene-ATP]
induction of input current by agonist [3]: did not generate currents | toxicity of purinergic agonists for oligodendrocytes [5]: toxic

Nc1ncnc2c1ncn2[C@@H]1O[C@H](COP(=O)(O)OP(=O)(O)OP(O)(O)=S)[C@@H](O)[C@H]1O [ATP-γ-S]
toxicity of purinergic agonists for oligodendrocytes [5]: toxic | histological examination of optic nerve after agonist infusion [6]: tissue damage

O=C(Nc1cccc(C(=O)Nc2ccc(S(=O)(=O)O)c3cc(S(=O)(=O)O)cc(S(=O)(=O)O)c23)c1)Nc1cccc(C(=O)Nc2ccc(S(=O)(=O)O)c3cc(S(=O)(=O)O)cc(S(=O)(=O)O)c23)c1 [NF023, hexasodium salt of 8,8′-[carbonylbis[imino-3,1-phenylenecarbonylimino]bis-1,3,5-naphthalenetrisulfonic acid]]
IC50 [2]: 29 µM

CC(C)c1cccc(C(C)C)c1O [propofol]
effect on ATP currents ([3]; propofol 60 μM): does not alter these currents | promotion of the increase of [Ca2+]i generated by ATP ([4]; 0.1 mM ATP): 60%±22 | promotion of the increase of [Ca2+]i generated by ATP ([4]; 1 mM ATP): 77%±34

O=C(Nc1ccc(C(=O)Nc2ccc(C(=O)Nc3ccc(S(=O)(=O)O)c4cc(S(=O)(=O)O)cc(S(=O)(=O)O)c34)cc2)cc1)Nc1ccc(C(=O)Nc2ccc(C(=O)Nc3ccc(S(=O)(=O)O)c4cc(S(=O)(=O)O)cc(S(=O)(=O)O)c34)cc2)cc1 [NF279]
IC50 [1]: 0.02 µM | IC50 [7]: > 30 µM

Nc1ncnc2c1ncn2[C@@H]1O[C@H](COP(=O)(O)OP(=O)(O)OP(=O)(O)O)[C@@H](O)[C@H]1O [ATP]
oligodendrocytes showing non-desensitising input current ([3]; ATP 1 mM, n=47): 77.3%±7.9 | EC50 [3]: 8770 µM | cytosol [Ca2+]i after agonist ([4]; ATP 10 μM, basal 250±65 nM): 1200 ± 468 nM | death of oligodendrocytes ([5]; ATP 0.01-1 mM, all concentrations tested): 15-27% | increase in number of cells with nuclear condensation vs control nerves ([8]; ATP 100 μM for 3 h, isolated adult rat optic nerve): > 3 times

Cc1nc(N=Nc2ccc(S(=O)(=O)O)cc2S(=O)(=O)O)c(COP(=O)(O)O)c(C=O)c1O [PPADS, tetrasodium salt of pyridoxalphosphate-6-azophenyl-2′,4′-disulfonic acid]
effect on currents induced by ATP ([3]; PPADS 100 μM): completely blocked | effect on Ca2+ entrance induced by Bz-ATP ([4]; PPADS): blocked | effect on [Ca2+]i response to ATP ([4]; PPADS 50 μM, ATP 10 μM): repressed | effect on ATP-induced oligodendrocyte death ([5]; PPADS 50 μM): inhibited | effect on ATP-induced oligodendrocyte death in isolated optic nerve ([8]; PPADS 10 μM with ATP): prevents the death of the oligodendrocytes | effect on symptoms and course of acute EAE ([9]; PPADS 30 mg/kg two times per day): did not improve the symptoms or the course of the disease

[Cu+2] [Cu^2+]
effect on ATP currents ([3]; Cu2+ 1 mM): reduces ATP currents

Nc1ncnc2c1ncn2[C@@H](C=O)O[C@@H](C=O)COP(=O)(O)OP(=O)(O)OP(=O)(O)O [o-ATP, sodium salt of Adenosine 5-triphosphate, oxidised with periodate]
effect on ATP currents ([3]; o-ATP, concentration not given): partially blocks | reduction of the increase in [Ca2+]i induced by Bz-ATP ([4]; o-ATP 1 mM): 63±8 | effect on oligodendroglial death due to ATP ([5]; o-ATP (FIG. 4)): can be prevented | effect on symptoms of acute EAE ([9]; o-ATP 1 and 5 mg/kg every 12 h): reduced or prevented the appearance of symptoms | effect on symptoms of chronic-recurrent-remittent EAE [10]: reduced the symptoms and also eliminated those common to the chronic phase | levels of P2X7 receptors in lumbar-sacral spinal cord [11]: returned to those of the controls
